Assay results: PubChem BioAssay (NCI)
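Growth conditions: 96-well plates. Treatment: test compound, 48 hours, 5 concentrations. Analysis: linear interpolation between bracketing concentrations; unreached endpoints set to highest concentration. GI50 marks 50% less growth. TGI denotes the concentration required for complete inhibition of growth.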

How the values were obtained:
Assay in all cases: NCI tumour cell line growth inhibition, 48 h
NCI-H23 lung = system: NCI-H23 lung
BT-549 breast = system: BT-549 breast
SK-OV-3 ovarian = system: SK-OV-3 ovarian
LOX IMVI melanoma = system: LOX IMVI melanoma
NCI-H522 lung = system: NCI-H522 lung
NCI-H226 lung = system: NCI-H226 lung
SF-268 CNS = system: SF-268 CNS
EKVX NSCLC = system: EKVX NSCLC
SF-295 CNS = system: SF-295 CNS
DU-145 prostate = system: DU-145 prostate

Structure (SMILES)	TGI (NCI-H23 lung) [µM]	TGI (BT-549 breast) [µM]	TGI (SK-OV-3 ovarian) [µM]	TGI (LOX IMVI melanoma) [µM]	TGI (NCI-H522 lung) [µM]	TGI (NCI-H226 lung) [µM]	TGI (SF-268 CNS) [µM]	TGI (EKVX NSCLC) [µM]	TGI (SF-295 CNS) [µM]	GI50 (NCI-H23 lung) [µM]	GI50 (BT-549 breast) [µM]	GI50 (DU-145 prostate) [µM]	TGI (DU-145 prostate) [µM]	GI50 (SK-OV-3 ovarian) [µM]	GI50 (LOX IMVI melanoma) [µM]	GI50 (NCI-H522 lung) [µM]	GI50 (NCI-H226 lung) [µM]	GI50 (SF-295 CNS) [µM]	GI50 (SF-268 CNS) [µM]
Cn1cc(C2NC(=O)c3ccccc3N2)c2ccccc21 (stereo not drawn)	> 100	> 100	40.3	> 89.8	2.56	3.59	> 100	> 44.1											
CC(C)(CN1CCCCC1)C(=O)/C=C/c1ccccc1	33.7		57.3	41.3	26.8	69.8	36.8	35.2	35.1										
COc1nc(NC2OC(COC(C)=O)C(OC(C)=O)C(OC(C)=O)C2OC(C)=O)c(N=CC=Nc2c(NC3OC(COC(C)=O)C(OC(C)=O)C(OC(C)=O)C3OC(C)=O)nc(OC)[nH]c2=O)c(=O)[nH]1 (stereo not drawn)	> 100		> 100	> 100	> 100	> 100	> 100	> 100	> 100										
N#CC(C(=O)CCCC(=O)Nc1ccccc1[N+](=O)[O-])c1c(Cl)cccc1Cl (stereo not drawn)	> 100		> 100		> 100	> 100	> 100	> 100	> 100										
O=C(/C=C/c1ccccc1)NC1C=Nc2ccc([N+](=O)[O-])cc2NC1=O (stereo not drawn)	> 100		> 100	> 100	> 100	> 100	> 100	> 100	> 100										
O=C(CCc1n[nH]c(=S)o1)Nc1cc(Cl)ccc1Cl	> 100		> 100			> 100	> 100	> 100	> 100										
CCOc1ccc(N(C)c2ccc(/C=C/C3=[N+](C)c4ccccc4C3(C)C)cc2)cc1	1.34	1.16	1.44	0.364	0.78	2.18	2.65		3.89	0.125	0.216	0.421	1.86	0.354	0.133	0.167	0.369	0.47	0.933
COC(=O)C(=O)C(C#N)c1nc2ccccc2s1 (stereo not drawn)	> 100		> 100	> 100	> 100	> 100	> 100	> 100	> 100										
O=C(Cc1ccccc1)NN1C(=O)C(Cl)C1c1ccc(Cl)cc1 (stereo not drawn)	> 100		> 100	> 100	> 100	> 100	> 100	> 100	> 100										
Cn1cc(C2=C(c3ccsc3)C(=O)NC2=O)c2ccccc21	> 25	> 25	> 25	> 25	> 25	> 25	> 25		> 25	> 25	> 25	> 25	> 25	> 25	> 25	> 25	> 22.6	> 25	> 25
CC1(OCc2ccccc2)C(=O)N2C1NCC2(C)C (stereo not drawn)	> 100			> 100		> 100	> 100	> 100	> 100										
